How the values were obtained:
BALB/cAJc mice = settings: mouse, in vivo, iv
Balb/c mice = settings: mouse, in vivo, ip

Substance | IgG (anti-MAP antibody in sera) (BALB/cAJc mice) | IgM (anti-MAP antibody in sera) (BALB/cAJc mice) | IgG (anti-MAP antibody in sera) (Balb/c mice) | IgM antibody titer against Ebola 1 (Balb/c mice)
Core-[PEG-FPRCRYVHK]4 [Ebola 2 MAP4] | no increase | no increase | – | –
Core-[PEG-IKKADGSECLP]4 [Ebola 1 MAP4] | increase in IgG was seen only in the 100-μg administration group | – | no increase | one mouse showed an evident increase, and two mice showed mild increases

Source: patent publication US20190276495A1 (priority 2016, published 2019)
